Laboratory results as given in US10624336B2, “In-vitro embryonic culture medium comprising an inhibitor of cathepsin L and the use of the same in embryo cryopreservation” (BEIJING UNIVERSITY OF AGRICULTURE, priority 2016, dated 2020).
Values joined by “and” are separate entries in the source; they are usually repeats but may differ in a detail not shown here. Equal entries are not always repeated. Marks after values point to notes of the source that are not given here.

Tested on: normally hatched blastocysts from mice
Experiment: Thawed recovery rate of normally hatched mouse blastocysts incubated with E-64d before programmed freezing
Assay type: cell-based
Details: for the thawed recovery rate (%): 2 h incubation before freezing, counted after 24-hour recovery, mean ± SD
Protocol: Female mice with pale pink vulvas were randomized and intraperitoneally injected with pregnant mare serum gonadotrophin (PMSG) at a dosage of 10 IU/mouse. After 48 hours, the female mice were further injected with human chorionic gonadotropin (hCG) at a dosage of 10 IU/mouse, and then were immediately housed in a cage with adult male mice at a ratio of 1:1 overnight for mating. The mice were checked for mating at 8 a.m. next day and injected with anti-PMSG (A-PMSG) at a dosage of 10 IU/mouse once the vaginal suppository was observed. The mice were sacrificed at 9 a.m. on Day 5 after the vaginal suppository was observed. The uteruses on both sides of the mice were removed and flushed with the PBS working solution to obtain normally hatched blastocysts.
The normally hatched blastocysts as obtained (about 100 blastocysts) were rinsed with 100 μl PBS solution for three times and then with 100 μl CZB working solution for another three times. Afterwards, the blastocysts were transferred into drops of the E-64d-CZB working solutions at 0, 0.5, 1, 1.5, 2, 3, 5, and 10 μmol/L, and then incubated in vitro in an incubator at 37° C., 5% CO2 in air, and 100% humidity for 2 hours.
The incubated embryos were washed twice with the PBS working solution, then subjected to PBS removal through a three-step process, and equilibrated for 5 min in a freezing solution (Bioniche, ViGRO™, ETHYLENE GLYCOL FREEZE (with Sucrose), Lot:150206-2P). Afterwards, the embryos were placed in 0.25 ml plastic straws. Then the straws containing the embryos were placed in a control rate freezer, cooled to −5° C. at a rate of 1° C./min, and then equilibrated for 10 min. During equilibration, the straws containing the embryos were clamped with pre-cooled forceps at the upper end for 3-5 seconds, thereby the freezing solution forming ice crystals, that is to say, ice seeding was completed. The straws containing the embryos were equilibrated for another 10 minutes, and then cooled down to −35° C. at a rate of 0.3° C./min. Subsequently, the frozen straws were placed in liquid nitrogen.
During thawing, the frozen straws were removed from the liquid nitrogen, gently shaken at room temperature for 5-10 seconds, placed in water at 35° C. for 10-15 seconds, and then removed from the water. The plugs at both ends of the straws were cut off, and then the embryos in the straws were placed in watch glasses, and subjected to the removal of the freezing solution through a three-step process. After recovery by thawing, the embryos were placed into drops of equilibrated fresh CZB for 24-hour recovery. After 24 hours, the thawed recovery rate was counted.
The three-step process for PBS removal as mentioned above was specifically as follows. Before the embryos were immersed in the freezing solution and then placed in straws for freezing, they were washed with 100 μl of the drops of the following mixed solutions sequentially (3-5 min for each mixed solution): the freezing solution ⅓+PBS ⅔, the freezing solution ½+PBS ½, and the freezing solution ⅔+PBS ⅓.
The three-step process for the removal of the freezing solution as mentioned above was specifically as follows. The embryos were washed with 100 μl of the drops of the following mixed solutions sequentially (3-5 min for each mixed solution): the freezing solution ⅔+PBS ⅓, the freezing solution ½+PBS ½, and the freezing solution ⅓+PBS ⅔.
All the experimental data was subjected to Chi-square analysis by SPSS 21.0 statistical software.

## CCOC(=O)[C@H]1O[C@@H]1C(=O)N[C@@H](CC(C)C)C(=O)NCCC(C)C [E-64d, ethyl (2S,3S)-3-[[(2S)-4-methyl-1-(3-methylbutylamino)-1-oxopentan-2-yl]carbamoyl]oxirane-2-carboxylate]
E-64d 0.5 μmol/L in CZB medium
  the thawed recovery rate (%): 75.35 ± 3.51^b %
E-64d 1 μmol/L in CZB medium
  the thawed recovery rate (%): 80.67 ± 5.40^Aa %
E-64d 1.5 μmol/L in CZB medium
  the thawed recovery rate (%): 79.45 ± 4.28^Aa %
E-64d 2 μmol/L in CZB medium
  the thawed recovery rate (%): 78.65 ± 2.56^b %
E-64d 3 μmol/L in CZB medium
  the thawed recovery rate (%): 76.26 ± 5.32^b %
E-64d 5 μmol/L
  thawed recovery rate compared with the control (in words): nearly comparable to that in absence of the inhibitor
E-64d 5 μmol/L in CZB medium
  the thawed recovery rate (%): 72.64 ± 2.13^B %
E-64d 10 μmol/L
  decrease of the thawed recovery rate as compared with the control: about 15%
E-64d 10 μmol/L in CZB medium
  the thawed recovery rate (%): 62.58% and 62.58 ± 3.72^B %
E-64d 0.5-3 μmol/L
  thawed recovery rate compared with the control (in words): improved to different extents as compared with the control
E-64d 1 or 1.5 μmol/L
  improvement of the thawed recovery rate as compared with the control: about 10%
